# “Also recorded” adds a separate entry of the source.
# Key:
# WT-TTR [1] = molecular target: T1, WT-TTR (Homo sapiens, UniProt P02766); experiment: time course analysis of WT-TTR fibril formation inhibition; format: biochemical; conditions: inhibitor 7.2 and 3.6 μM, WT-TTR 3.6 μM, pH 4.4, turbidity at 500 nm
# T1 construct: made in house
# Description: Time course analysis of WT-TTR fibril formation inhibition by compounds 25, 47, and 64. Compounds 25, 47, and 64 were dissolved in DMSO to provide 7.2 mM primary stock solutions (10× stocks), from which 5- and 10-fold DMSO dilutions yielded 1.44 mM (2×) and 0.72 mM (1×) secondary stock solutions, respectively. 495 μL of 0.4 mg/mL (7.2 μM) WT-TTR solution (10 mM sodium phosphate, 100 mM KCl, and 1 mM EDTA, pH 7.2), and 5 μL of either the 1.44 or 0.72 mM inhibitor secondary stock solutions were added to disposable UV cuvettes, vortexed briefly, then incubated for 30 min at 25° C. The pH was then adjusted to 4.4 with addition of 500 μL of acidic buffer (100 mM acetate, 100 mM KCl, 1 mM EDTA, pH 4.2), and the final 1 mL solutions were vortexed again and incubated in the dark at 37° C. without agitation. At 0, 4, 8, 12, 25, 49, 74, 100, 122, 145, and 169 h time points after acidification, the solutions were vortexed and the turbidity at 500 nm was measured. Control samples containing 5 μL of pure DMSO were prepared and analyzed as above for comparison. Small molecule and TTR control samples were prepared in groups of 10 to prevent disturbance of the cuvettes during incubation. Samples were discarded after their turbidities were measured.
# FIG. 10 is a plot of the timecourse analysis of WT-TTR (3.6 μM) fibril formation mediated by partial acid denaturation in the absence (▴) and presence of 7.2 μM (⋄) and 3.6 μM (◯) inhibitors 25, 47, and 64, as measured by turbidity at 500 nm (see color scheme within Figure to differentiate inhibitors). It is hard to discern which compound is most efficacious in the black and white plot.
# WT-TTR tetramer = molecular target: T2, WT-TTR tetramer (Homo sapiens, UniProt P02766); experiment: time course analysis of WT-TTR tetramer dissociation by linked monomer unfolding in urea; format: biochemical; conditions: for rate of TTR tetramer dissociation in 6M urea: inhibitor 7.2 and 3.6 μM, TTR 3.6 μM, far-UV CD
# T2 construct: made in house
# From the text: The ability of these inhibitors to impose kinetic stability on tetrameric TTR is best evaluated by assessing the rate of TTR tetramer dissociation (Hammarstrom, P.; et al. Science 2003, 299, 713-716; Hammarstrom, P.; et al. Proc. Natl. Acad. Sci. USA 2002, 99, 16427-16432). Under acidic conditions tetramer dissociation leads to amyloidogenesis, whereas in the presence of chaotropes (6M urea), tetramer dissociation leads to monomer unfolding. The influence of inhibitors 25, 47 and 64, representing the three structural classes of dibenzofuran-based inhibitors, on the rates of tetramer dissociation under acid- and urea-mediated denaturing conditions was probed. […] The rate of TTR tetramer dissociation in 6M urea is easily monitored by linking the slow quaternary structural changes to rapid tertiary structural changes that are easily monitored by spectroscopic methods (Hammarstrom, P.; et al. Proc. Natl. Acad. Sci. USA 2002, 99, 16427-16432).
# Time course analysis of WT-TTR tetramer dissociation inhibition by compounds 25, 47, and 64 evaluated by linked-monomer unfolding in urea. Compounds 25, 47, and 64 were dissolved in DMSO to provide 10 mM primary stock solutions, from which 10-fold EtOH dilutions yielded 1 mM secondary stock solutions. 200 μL of 1.0 mg/mL (18 μM) WT-TTR solution (50 mM sodium phosphate, 100 mM KCl, and 1 mM EDTA, pH 7.2), and either 7.2 or 3.6 μL (2× and 1×, respectively) of 1 mM inhibitor secondary stock solutions were added to 2 mL eppendorf tubes, vortexed briefly, and incubated for 15 min at 25° C. 100 μL of the TTR•inhibitor solutions were added to 900 μL of urea buffer (6.67 M urea, 50 mM sodium phosphate, 100 mM KCl, 1 mM EDTA, pH 7.2), and the final 1 mL solutions were vortexed again and incubated in the dark at 25° C. without agitation. At 0, 4, 11, 24, 49, 73, 97, 122, 146, and 170 h time points after mixing with urea, the circular dichroism spectra were measured between […], with scanning every 0.5 nm and averaging for 5 s. […] Control samples containing 7.2 μL of 10% DMSO in EtOH were prepared and analyzed as above for comparison. […] TTR tetramer dissociation is linked to the rapid (˜500,000× faster) monomer denaturation as measured through this β-sheet loss (Hammarstrom, P.; et al. Proc. Natl. Acad. Sci. USA 2002, 99, 16427-16432).
# FIG. 11 is a plot of the timecourse analysis of WT-TTR (3.6 μM) tetramer dissociation (6.0 M urea) in the absence (▴) and presence of 7.2 μM (⋄) and 3.6 μM (◯) concentrations of inhibitors 25, 47, and 64 (see color scheme within Figure to differentiate inhibitors). Slow tetramer dissociation is not detectable by far-UV CD spectroscopy, but this process is linked to rapid (˜500,000× faster) monomer denaturation as monitored by loss of β-sheet content easily followed by circular dichroism spectroscopy. […]
# [2] = precipitation of small molecules under acid-mediated amyloidogenic conditions in the absence of TTR; format: physicochemical; conditions: 3.6 μM, pH 4.4, 37° C., 72 h
# Description: (§1) TTR amyloid inhibition efficacy was probed using a stagnant fibril formation assay described previously, wherein partial denaturation was triggered by acidification (pH 4.4, 37° C.) (Colon, W.; Kelly, J. W. Biochemistry 1992, 31, 8654-8660). Briefly, a test compound (7.2 or 3.6 μM) is incubated with TTR (3.6 μM) for 30 min in pH 7 buffer. Amyloidogenesis is then initiated by lowering to pH 4.4, where maximal fibril formation is observed with WT-TTR after 72 h (37° C.). […] From experience we know that excellent inhibitors allow <10% fibril formation at a small molecule concentration of 7.2 μM and <40% fibril formation at a concentration equal to that of WT-TTR (3.6 μM) (Hammarstrom, P.; et al. Science 2003, 299, 713-716; Klabunde, T.; et al. Nature Struct. Biol. 2000, 7, 312-321; Razavi, H.; et al. Angew Chem 2003, 42, 2758-2761; Miroy, G. J.; et al. Proc. Natl. Acad. Sci. USA 1996, 93, 15051-15056; Peterson, S. A.; et al. Proc. Natl. Acad. Sci. USA 1998, 95, 12956-12960; Baures, P. W.; et al. Bioorg. Med. Chem. 1998, 6, 1389-1401; Baures, P. W.; et al. Bioorg. Med. Chem. 1999, 7, 1339-1347; Petrassi, H. M.; et al. J. Am. Chem. Soc. 2000, 122, 2178-2192; McCammon, M. G.; et al. Structure 2002, 10, 851-863; Oza, V. B.; et al. J. Med. Chem. 2002, 45, 321-332; Saccheftini, J. C.; et al. Nature Rev. Drug Disc. 2002, 1, 267-275; Green, N. S.; et al. J. Am. Chem. Soc. 2003, 125, 13404-13414; Adamski-Werner, S. L.; et al. J. Med. Chem. 2004, 47, 355-374; Miller Sean, R.; et al. Lab. Inv. 2004, 84, 545-552). […] Therefore, when both the ligand and TTR are at equal concentrations, a population of TTR•I, TTR•I2 and unliganded TTR is observed, dictated by the dissociation constants. It is now established by other studies that inhibitor occupancy of only one of the two TTR binding sites is sufficient to stabilize the entire tetramer against amyloidogenesis (Wiseman, R. L.; et al. J. Am. Chem. Soc. 2005, in press). This is further supported by the observation herein that twenty-six of these dibenzofurans are excellent TTR amyloidogenesis inhibitors (<40% fibril formation) at a concentration equal to that of TTR (3.6 μM each, FIG. 3).
# WT-TTR [3] = molecular target: T1, WT-TTR; experiment: stagnant acid-mediated fibril formation assay (turbidity); format: biochemical; conditions: WT-TTR 3.6 μM; for inhibitor potency against fibril formation: inhibitor 3.6 μM, pH 4.4, 72 h
# Description: as §1
# (§2) The procedures used for bacterial expression of TTR (Lai, Z.; et al. Biochemistry 1996, 35, 6470-6482), the stagnant fibril formation assay (Colon, W.; Kelly, J. W. Biochemistry 1992, 31, 8654-8660; Lai, Z.; et al. Biochemistry 1996, 35, 6470-6482), the blood plasma binding selectivity assay (Purkey, H. E.; et al. Proc. Natl. Acad. Sci. USA 2001, 98, 5566-5571), and analytical ultracentrifugation (Lashuel, H. A.; et al. Biochemistry 1998, 37, 17851-17864) have all been described in detail previously.
# [4] = molecular target: T3, TTR in human blood plasma (Homo sapiens, UniProt P02766); experiment: plasma TTR binding selectivity, antibody capture method; conditions: inhibitor 10.8 μM, 24 h, 37° C.
# T3 construct: from tissue; host or cells: human blood plasma
# Description: Inhibitor binding selectivity to TTR in human blood plasma was assessed using a previously established antibody capture method (Purkey, H. E.; et al. Proc. Natl. Acad. Sci. USA 2001, 98, 5566-5571). In this evaluation, inhibitors (10.8 μM, ˜2-3× the natural concentration of TTR) are incubated in human blood plasma for 24 h at 37° C. Quenched sepharose resin is then added to the plasma to remove any small molecules that would bind to the resin as opposed to TTR. TTR and any TTR-bound small molecule is then immunocaptured using a polyclonal TTR antibody covalently attached to sepharose resin. After washing the resin (5×10 min washes), the antibody-TTR complex is dissociated at high pH and analyzed by RP-HPLC. The relative stoichiometry between TTR and inhibitor is then calculated from their HPLC peak areas using standard curves.
# as §2
SMILES,precipitation in the absence of TTR [2],inhibitor potency against fibril formation (WT-TTR [3]),other results
O=C(O)c1cccc2c1oc1c(C(=O)O)ccc(Nc3ccccc3C(F)(F)F)c12 [Compound 25],no measurable precipitation,–,"rate of TTR amyloidogenesis mediated by partial acidification relative to control (WT-TTR [1]): dramatically slowed in a dose-dependent fashion; order of effect on tetramer dissociation at the end of the time course (WT-TTR tetramer; after 169 hours, 6.0 M urea, FIG. 11): most effective in dissociating tetramers; rate of TTR tetramer dissociation in 6M urea (WT-TTR tetramer): markedly slowed in a dose-dependent fashion"
O=C(O)c1cccc2c1oc1c(C(=O)O)ccc(-c3cc(F)cc(F)c3)c12 [Compound 62],no measurable precipitation,–,–
O=C(O)c1cccc(-c2ccc(C(=O)O)c3oc4c(C(=O)O)cccc4c23)c1 [Compound 69],–,amongst the most potent,binding selectivity to TTR in human blood plasma [4]: modest
O=C(O)c1cccc2c1oc1c(C(=O)O)ccc(-c3ccccc3F)c12 [Compound 67],–,most potent,–
O=C(O)c1cc(Nc2ccc(C(=O)O)c3oc4c(C(=O)O)cccc4c23)cc(C(=O)O)c1 [Compound 34],–,all the inhibitors (except 34) display increased potency,"inhibition of WT-TTR fibril formation (WT-TTR [3]; inhibitor 7.2 μM, pH 4.4, 37° C., 72 h): not as effective; also recorded: all but one (34) completely inhibit fibril formation"
O=C(O)c1ccc(Nc2ccc(C(=O)O)c3oc4c(C(=O)O)cccc4c23)cc1 [Compound 35],–,–,binding selectivity to TTR in human blood plasma [4]: all but two (31 and 35) exhibit dramatically increased binding selectivity
O=C(O)c1cccc2c1oc1c(C(=O)O)ccc(Nc3ccccc3F)c12 [Compound 36],–,most potent,–
O=C(O)c1cccc2c1oc1c(C(=O)O)ccc(Nc3cc(Cl)cc(Cl)c3)c12 [Compound 30],no measurable precipitation,–,–
O=C(O)c1cccc2c1oc1c(C(=O)O)ccc(Nc3cc(C(F)(F)F)cc(C(F)(F)F)c3)c12 [Compound 31],–,–,binding selectivity to TTR in human blood plasma [4]: all but two (31 and 35) exhibit dramatically increased binding selectivity
O=C(O)c1cccc2c1oc1c(C(=O)O)ccc(Nc3cccc(C(F)(F)F)c3)c12 [Compound 26],no measurable precipitation,–,–
O=C(O)c1cccc2c1oc1c(C(=O)O)ccc(-c3cc(Cl)cc(Cl)c3)c12 [Compound 63],–,most potent,–
O=C(O)c1cccc2c1oc1c(C(=O)O)ccc(-c3cc(C(F)(F)F)cc(C(F)(F)F)c3)c12 [Compound 64],–,–,rate of TTR amyloidogenesis mediated by partial acidification relative to control (WT-TTR [1]): dramatically slowed in a dose-dependent fashion; rate of TTR tetramer dissociation in 6M urea (WT-TTR tetramer): markedly slowed in a dose-dependent fashion
O=C(O)c1cccc2c1oc1c(C(=O)O)ccc(Oc3cccc(C(F)(F)F)c3)c12 [Compound 45],no measurable precipitation,–,–
O=C(O)c1cccc(Nc2ccc(C(=O)O)c3oc4c(C(=O)O)cccc4c23)c1 [Compound 33],–,amongst the most potent,binding selectivity to TTR in human blood plasma [4]: modest

# From patent US20050261365A1, “Transthyretin stabilization” (The Scripps Research Institute, priority 2004, published 2005)
